In ChEMBL document CHEMBL1759835, “Biotransformation of natural compounds. Oxido-reduction of Sch-642305 by Aspergillus ochraceus ATCC 1009” (Bioorg Med Chem Lett, 2011):

How the values were obtained:
Escherichia coli = experiment: Antibacterial activity against Escherichia coli ATCC 25922 at 100 ug by disk inhibition zone method relative to chloramphenicol; assay type: functional; design: scale not given: the % may be the effect or the level left
Bacillus subtilis = experiment: Antibacterial activity against Bacillus subtilis ATCC 6633 at 100 ug by disk inhibition zone method relative to gentamycin; assay type: functional; design: scale not given: the % may be the effect or the level left
MDA-MB-231 = experiment: Cytotoxicity against human MDA-MB-231 cells assessed as inhibition of cell proliferation after 72 hrs by MTS assay; assay type: functional, cell-based; settings: MDA-MB-231, 72 h
K562 = experiment: Cytotoxicity against human K562 cells assessed as inhibition of cell proliferation after 72 hrs by MTS assay; assay type: functional, cell-based; settings: K562, 72 h
Micrococcus luteus = experiment: Antibacterial activity against Micrococcus luteus ATCC 10240 at 100 ug by disk inhibition zone method relative to chloramphenicol; assay type: functional; design: scale not given: the % may be the effect or the level left

SMILES	Activity (Escherichia coli)	Activity (Bacillus subtilis)	IC50 (MDA-MB-231)	IC50 (K562)	Activity (Micrococcus luteus)
C[C@H]1CCCC[C@@H]2[C@@H](CC(=O)O1)[C@@H](O)CC[C@@H]2O	0%	0%	40 nM	4 nM	0%
C[C@H]1CCCC[C@H]2C(=O)CC[C@H](O)[C@@H]2CC(=O)O1	50%	0%	400 nM	200 nM	0%
C[C@H]1CCCC[C@H]2C(=O)C[C@H](O)[C@H](O)[C@@H]2CC(=O)O1	0%	62.5%	12 nM	20 nM	0%
C[C@H]1CCCC[C@H]2C(=O)C=C[C@H](O)[C@@H]2CC(=O)O1	0%	100%	20 nM	20 nM	38%
